In brackets after ≈: the same amount, converted by molar mass. Like-named read-outs stand apart in the source and are kept apart here. Marks after values point to notes of the source that are not given here.
What was measured:
[1] = tested on: V12 5725 (Wales) Klebsiella pneumoniae; assay: MIC assay, CAMHB with alginate oligomer, no visible growth; type: cell-based; conditions: Table 5, V12 MDR Kleb pneu
V22 6056 Acinetobacter = assay: as above; type: cell-based, Acinetobacter lwoffii; conditions: Table 5, V22 MDR Acin. lwoff
[2] = tested on: V23 1322 Burkholderia cepacia; assay: as above; type: cell-based
[3] = tested on: PA01 Pseudomonas aeruginosa ATCC 15692; assay: MIC assay, two-fold antibiotic dilutions in CAMHB with alginate oligomer, no visible growth; type: cell-based; conditions: PA01 non MDR
[4] = tested on: V10 (Egypt) Acinetobacter lwoffii; assay: MIC assay, CAMHB with alginate oligomer, no visible growth; type: cell-based; conditions: Table 5, V10 MDR Acin. lwoff
V11 5702 (Wales) E. coli = assay: as above; type: cell-based; conditions: Table 5, V11 MDR E.coli
V5 AIM-1 E. coli = assay: as above; type: cell-based; conditions: Table 4, V5 MDR E. coli
Text: (§1) The study described in Example 1 was repeated with the following strains of bacteria and antibiotics as detailed in Tables 4, 5 and 6.

[5] = tested on: Pseudomonas aeruginosa MDR R22 from China (V1); assay: as above; type: cell-based; conditions: Table 4, V1 MDR (China)
Text: as §1

[6] = tested on: Acinetobacter baumannii MDR ACB from Libya (V4); assay: as above; type: cell-based; conditions: Table 4, V4 MDR (Libya)
Text: as §1
The study described in Example 1 was repeated with the following strains of Acinetobacter baumannii, antibiotics and M-block alginate oligomer in place of OligoG CF-5/20 as detailed in Table 7. The M-block oligomer is 100% M with a DPn of 15 to 18,

[7] = tested on: Pseudomonas aeruginosa CFA 24-1, clinical mucoid strain (R80); assay: as above; type: cell-based; conditions: Table 4, R80 non MDR (muc.)
[8] = tested on: Pseudomonas aeruginosa ATCC 39324, mucoid type strain (R79); assay: as above; type: cell-based; conditions: R79 non MDR (muc.)
[9] = tested on: Pseudomonas aeruginosa MDR 301 from Poland (V2); assay: as above; type: cell-based; conditions: Table 4, V2 MDR (Pol.)
[10] = tested on: V9 (Egypt) Acinetobacter baumannii; assay: as above; type: cell-based; conditions: Table 5, V9 MDR Acin. baum
[11] = tested on: Klebsiella pneumoniae KP05 506 from India (V3); assay: as above; type: cell-based; conditions: Klebsiella pneumoniae, Table 4; V3 MDR (India); OligoCF-5/20 +10% G; read-out: MIC
[12] = Table 5, V23 MDR Burk cep, OligoCF-5/20 +6% G
[13] = Table 5, V23 MDR Burk cep, OligoCF-5/20 +10% G
[14] = Pseudomonas aeruginosa, OligoCF-5/20 +2% G, read-out: MIC
[15] = Pseudomonas aeruginosa, OligoCF-5/20 +6% G, read-out: MIC
[16] = Pseudomonas aeruginosa, OligoCF-5/20 +10% G, read-out: MIC
[17] = Acinetobacter baumannii, OligoCF-5/20 0G, read-out: MIC
[18] = Pseudomonas aeruginosa, OligoCF-5/20 0G, read-out: MIC

Molecule: Spiramycin
- MIC ([1]; OligoCF-5/20 0G): 67^† μg/ml
- MIC ([1]; OligoCF-5/20 +2% G): 64 µg/mL
- MIC ([1]; OligoCF-5/20 +6% G): 32^† μg/ml
- MIC ([1]; OligoCF-5/20 +10% G): 16† μg/ml
- MIC (V22 6056 Acinetobacter; OligoCF-5/20 0G): <4 µg/mL
- MIC (V22 6056 Acinetobacter; OligoCF-5/20 +2% G): <4 µg/mL
- MIC (V22 6056 Acinetobacter; OligoCF-5/20 +6% G): <4 µg/mL
- MIC (V22 6056 Acinetobacter; OligoCF-5/20 +10% G): <4 µg/mL
- MIC ([2]; Table 5, V23 MDR Burk cep, OligoCF-5/20 0G): >4096^† μg/ml
- MIC ([2]; Table 5, V23 MDR Burk cep, OligoCF-5/20 +2% G): 2048^† μg/ml
- MIC [2, 12]: 2048^† μg/ml
- MIC [2, 13]: 1024^† μg/ml
- MIC ([3]; Table 4, OligoCF-5/20 0G): >1024^† μg/ml
- MIC ([3]; Table 4, OligoCF-5/20 +10% G): 512^† μg/ml
- MIC ([4]; OligoCF-5/20 0G): <4 µg/mL
- MIC ([4]; OligoCF-5/20 +2% G): <4 µg/mL
- MIC ([4]; OligoCF-5/20 +6% G): <4 µg/mL
- MIC ([4]; OligoCF-5/20 +10% G): <4 µg/mL
- MIC (V11 5702 (Wales) E. coli; OligoCF-5/20 0G): 128^† μg/ml
- MIC (V11 5702 (Wales) E. coli; OligoCF-5/20 +2% G): 64^† μg/ml
- MIC (V11 5702 (Wales) E. coli; OligoCF-5/20 +6% G): 32^† μg/ml
- MIC (V11 5702 (Wales) E. coli; OligoCF-5/20 +10% G): 32^† μg/ml
- MIC (V5 AIM-1 E. coli; OligoCF-5/20 0G): 32^† μg/ml
- MIC (V5 AIM-1 E. coli; OligoCF-5/20 +2% G): 32 µg/mL
- MIC (V5 AIM-1 E. coli; OligoCF-5/20 +6% G): 16^† μg/ml
- MIC (V5 AIM-1 E. coli; OligoCF-5/20 +10% G): 8† μg/ml
- MIC ([5]; OligoCF-5/20 0G): >1024^† μg/ml
- MIC ([5]; OligoCF-5/20 +10% G): 512^† μg/ml
- MIC ([6]; OligoCF-5/20 0G): 512^† μg/ml
- MIC ([6]; OligoCF-5/20 +2% G): 64^† μg/ml
- MIC ([6]; OligoCF-5/20 +6% G): 64^† μg/ml
- MIC ([6]; OligoCF-5/20 +10% G): 32^† μg/ml
- MIC ([7]; OligoCF-5/20 0G): >1024^† μg/ml
- MIC ([8]; Table 4, OligoCF-5/20 0G): >1024^† μg/ml
- MIC ([8]; Table 4, OligoCF-5/20 +10% G): 256^† μg/ml
- MIC ([9]; OligoCF-5/20 0G): >1024^† μg/ml
- MIC ([10]; OligoCF-5/20 0G): 256^† μg/ml
- MIC ([10]; OligoCF-5/20 +2% G): 64^† μg/ml
- MIC ([10]; OligoCF-5/20 +6% G): 32^† μg/ml
- MIC ([10]; OligoCF-5/20 +10% G): 16^† μg/ml

Molecule: CC[C@H]1OC(=O)[C@H](C)[C@@H](O[C@H]2C[C@@](C)(OC)[C@@H](O)[C@H](C)O2)[C@H](C)[C@@H](O[C@@H]2O[C@H](C)C[C@H](N(C)C)[C@H]2O)[C@](C)(OC)C[C@@H](C)C(=O)[C@H](C)[C@@H](O)[C@]1(C)O [Clarithromycin]
- MIC ([1]; Klebsiella pneumoniae, OligoCF-5/20 0G, read-out: MIC): 512 µg/mL (≈ 685 µM)
- MIC ([1]; OligoCF-5/20 +10% G): 512 µg/mL (≈ 685 µM)
- MIC ([2]; Burkholderia cepacia, Table 5, V23 MDR Burk cep, OligoCF-5/20 0G, read-out: MIC): 512 µg/mL (≈ 685 µM)
- MIC ([2]; Burkholderia cepacia, Table 6, V23, Experiment 2 (18-03-10), OligoCF-5/20 0G, read-out: MIC): 128 µg/mL (≈ 171 µM)
- MIC ([2]; Burkholderia cepacia, Table 6, V23, Experiment 3 (19-03-10), OligoCF-5/20 0G, read-out: MIC): 64 µg/mL (≈ 85.6 µM)
- MIC [2, 12]: 128^† μg/ml
- MIC [2, 13]: 32^† μg/ml
- MIC ([2]; Table 6, V23, Experiment 1 (18-03-10), OligoCF-5/20 +6% G): 128^† μg/ml
- MIC ([2]; Table 6, V23, Experiment 1 (18-03-10), OligoCF-5/20 +10% G): 128^† μg/ml
- MIC ([2]; Table 6, V23, Experiment 2 (18-03-10), OligoCF-5/20 +2% G): 128 µg/mL (≈ 171 µM)
- MIC ([2]; Table 6, V23, Experiment 2 (18-03-10), OligoCF-5/20 +6% G): 32^† μg/ml
- MIC ([2]; Table 6, V23, Experiment 2 (18-03-10), OligoCF-5/20 +10% G): 16^† μg/ml
- MIC ([2]; Table 6, V23, Experiment 3 (19-03-10), OligoCF-5/20 +2% G): 512^‡ μg/ml
- MIC ([2]; Table 6, V23, Experiment 3 (19-03-10), OligoCF-5/20 +6% G): 512^‡ μg/ml
- MIC ([2]; Table 6, V23, Experiment 3 (19-03-10), OligoCF-5/20 +10% G): 512‡ μg/ml
- MIC [11]: 128 µg/mL (≈ 171 µM)
- MIC ([3]; Pseudomonas aeruginosa, ATCC15692, Table 4, OligoCF-5/20 +2% G, read-out: MIC): 128 µg/mL (≈ 171 µM)
- MIC ([3]; Pseudomonas aeruginosa, ATCC15692, Table 4, OligoCF-5/20 +6% G, read-out: MIC): 64 µg/mL (≈ 85.6 µM)
- MIC ([3]; Pseudomonas aeruginosa, ATCC15692, Table 4, OligoCF-5/20 +10% G, read-out: MIC): 32 µg/mL (≈ 42.8 µM)
- MIC ([4]; Acinetobacter lwoffii, OligoCF-5/20 0G, read-out: MIC): < 0.5 µg/mL
- MIC ([4]; OligoCF-5/20 +6% G): <0.5 µg/mL
- MIC ([4]; OligoCF-5/20 +10% G): <0.5 µg/mL
- MIC (V11 5702 (Wales) E. coli; Escherichia coli, OligoCF-5/20 0G, read-out: MIC): 512 µg/mL (≈ 685 µM)
- MIC (V11 5702 (Wales) E. coli; OligoCF-5/20 +2% G): 128^† μg/ml
- MIC (V5 AIM-1 E. coli; Escherichia coli, OligoCF-5/20 0G): 4 µg/mL (≈ 5.35 µM)
- MIC (V5 AIM-1 E. coli; Escherichia coli, OligoCF-5/20 +2% G): 4 µg/mL (≈ 5.35 µM)
- MIC (V5 AIM-1 E. coli; Escherichia coli, OligoCF-5/20 +6% G): ≤ 1 µg/mL
- MIC (V5 AIM-1 E. coli; Escherichia coli, OligoCF-5/20 +10% G): ≤ 1 µg/mL
- MIC [5, 14]: 128 µg/mL (≈ 171 µM)
- MIC [5, 15]: 64 µg/mL (≈ 85.6 µM)
- MIC [5, 16]: 32 µg/mL (≈ 42.8 µM)
- MIC [6, 17]: 8 µg/mL (≈ 10.7 µM)
- MIC ([6]; Acinetobacter baumannii, OligoCF-5/20 +2% G, read-out: MIC): 4 µg/mL (≈ 5.35 µM)
- MIC ([6]; Acinetobacter baumannii, OligoCF-5/20 +6% G, read-out: MIC): ≤ 1 µg/mL
- MIC ([6]; Acinetobacter baumannii, OligoCF-5/20 +10% G, read-out: MIC): ≤ 1 µg/mL
- MIC [7, 18]: 1020 µg/mL (≈ 1370 µM)
- MIC [7, 14]: 512 µg/mL (≈ 685 µM)
- MIC [7, 16]: 64 µg/mL (≈ 85.6 µM)
- MIC ([8]; Pseudomonas aeruginosa, ATCC39324, Table 4, OligoCF-5/20 +2% G, read-out: MIC): 128 µg/mL (≈ 171 µM)
- MIC ([8]; Pseudomonas aeruginosa, ATCC39324, Table 4, OligoCF-5/20 +6% G, read-out: MIC): 32 µg/mL (≈ 42.8 µM)
- MIC ([8]; Pseudomonas aeruginosa, ATCC39324, Table 4, OligoCF-5/20 +10% G, read-out: MIC): 4 µg/mL (≈ 5.35 µM)
- MIC [9, 18]: 512 µg/mL (≈ 685 µM)
- MIC [9, 15]: 128 µg/mL (≈ 171 µM)
- MIC [9, 16]: 32 µg/mL (≈ 42.8 µM)
- MIC [10, 17]: 16 µg/mL (≈ 21.4 µM)
- MIC ([10]; OligoCF-5/20 +2% G): 4^† μg/ml
- MIC ([10]; OligoCF-5/20 +6% G): 2^† μg/ml
- MIC ([10]; OligoCF-5/20 +10% G): 1^† μg/ml
